# According to patent US20240139188A1, “Arylamide Compounds For Treatment And Prevention Of Fungal Infections” (priority 2022, published 2024):
# Where two headings read alike, the source gives them in different places.
# How the values were obtained:
# A. fumigatus [1] = experiment: MIC/MEC, CLSI M38-A2; type: cell-based, Aspergillus fumigatus; conditions: Aspergillus fumigatus
# C. albicans = experiment: MIC for yeasts, CLSI M27-A3; type: cell-based, Candida albicans
# C. auris = experiment: MIC for yeasts, CLSI M27-A3; type: cell-based, Candida auris; conditions: read-out: MIC BRI
# [2] = system: A. fumigatus null mutants; experiment: Phosphatase and kinase null mutant screening; type: cell-based, Aspergillus fumigatus; conditions: for sensitivity of null mutant: BRI 20 μM; for sensitivity, BRI (20 μM): key: +: sensitivity similar to wild-type; −: more sensitive than the wild-type
# Description: Phosphatase and kinase null mutant screening: An A. fumigatus phosphatase deletion library encompassing 25 null mutants for phosphatase catalytic subunits (Winkelströter et al., G3 (Bethesda), 2015, 5, 1525-39) was screened for sensitivity to the combination of CAS+BRI. […] In each well a total of 200 μL of liquid MM plus conidia from the different mutants (1×10^4 conidia/mL) was incubated in the presence of BRI (20 μM).
# [3] = system: A. fumigatus cell membrane potential; experiment: Membrane potential determination, DiBAC4(3); type: cell-based, Aspergillus fumigatus; conditions: BRI 1 μM, 30 minutes
# Description: Membrane potential determination: […] Biotechnol., 2021, 14, 262-276) with modifications. […] After, the germlings were washed with sterile PBS (140 mM NaCl, 2 mM KCl, 10 mM NaHPO4, 1.8 mM KH2PO4, pH 7.4). The fluorescence was analyzed with excitation wavelength of 450-490 nm, and emission wavelength of 525-550 nm on the Observer Z1 fluorescence microscope (Carl Zeiss) using the 100× with Differential interference contrast (DIC) images. Fluorescent images were captured with an AxioCam camera (Carl Zeiss, Inc.) and processed using the Axio Vision software (version 4.8).
# A. fumigatus [4] = experiment: Fungal burden, chemotherapeutic murine model of IPA; type: in vivo, BALB/c mice; conditions: BRI 50 mg/kg, 3 days post-infection, vs non-treated mice
# Description: Fungal burden: Inbred female mice (BALB/c strain; body weight, 20-22 g) were housed in vented cages containing five animals. Mice were immunosuppressed with cyclophosphamide (150 mg per kg of body weight), which was administered intraperitoneally on days −4, −1 and 2 prior to and post infection (infection day is “day 0”). Hydrocortisonacetate (200 mg/kg body weight) was injected subcutaneously on day −3. Mice (5 mice per group) were anesthetized by halothane inhalation and infected by intranasal instillation of 20 μL of 1.0×10^6 conidia of A. fumigatus Δku80 pyrG^+ (wild-type) (the viability of the administered inoculum was determined by incubating a serial dilution of the conidia on MM medium, at 37° C.). As a negative control, a group of 5 mice received PBS only. […]
# DNA quantity and quality were assessed using a NanoDrop 2000 spectrophotometer (Thermo Scientific). Quantitative real-time PCRs were performed using 400 ng of total DNA from each sample, and primers to amplify the 18S rRNA region of A. fumigatus and an intronic region of mouse GAPDH (glyceraldehyde-3-phosphate dehydrogenase). Six-point standard curves were calculated using serial dilutions of gDNA from A. fumigatus strain and the uninfected mouse lung. Fungal and mouse DNA quantities were obtained from the threshold cycle (Ct) values from an appropriate standard curve.
# A. fumigatus biofilms = experiment: Biofilm assay (XTT); conditions: Aspergillus fumigatus, read-out: inhibition of biofilm formation
# Description: Biofilm assay: To test the susceptibility of pre-formed A. fumigatus biofilms to
# VOR, CAS and to the combination of CAS+BRI and VOR+BRI, a suspension containing 10^6 conidia per mL of the wild-type strain (Δku80 pyrG^+) was prepared in liquid MM and 100 μL of it was inoculated in each well of a 96-well plate. After 24 hours of incubation at 37° C., 50 μL of fresh MM containing CAS, VOR or the combination of VOR and CAS with BRI was added to the biofilm to reach the final concentration as indicated and incubated for a further 12 hours at 37° C. Wells containing untreated conidia were used as a positive control. After, the metabolic activity of the cells was evaluated by adding 50 μL of an aqueous XTT solution (1 mg/mL of XTT and 125 μM of menadione) to each well. The plate was incubated for additional 1 hour at 37° C., centrifuged (2000 rpm, 5 minutes) and 100 μL of the supernatant was transferred to a flat-bottomed 96-well plate. The absorbance was measured at 450 nm on a plate reader (Synergy HTX Multi-Mode Reader- BioTek Instruments). The XTT assay's were performed in six replicates.
# CrzA:GFP = CrzA:GFP translocation to the nucleus; conditions: BRI 5 μM, 30 minutes
# Description: Conidia were germinated in YG medium and grown for 13 hours and then exposed or not to BRI, CAS, and BRI+CAS for 30 minutes.
# chitin synthase genes = experiment: Chitin synthase mRNA accumulation (RT-qPCR); conditions: wild-type strain, 1 hour exposure; not in the mutant strains
# Description: RNA-sequencing. cDNA synthesis and RTqPCR: All experiments were carried out in biological triplicates and conidia (10^7) were inoculated in liquid MM and A. fumigatus strains were grown for 16 hours at 37 ° C. and treated or not with different concentrations of BRI, CAS, or BRI+CAS for 1 hour. For total RNA isolation, mycelia were ground in liquid nitrogen and total RNA was extracted using TRIzol (Invitrogen), treated with RQ1 RNase-free DNase I (Promega), and purified using the RNAeasy kit (Qiagen) according to the manufacturer's instructions. RNA was quantified using a NanoDrop and Qubit fluorometer, and analyzed using an Agilent 2100 Bioanalyzer system to assess the integrity of the RNA.
# For RT-qPCR, the RNA was reverse transcribed to cDNA using the ImProm-II reverse transcription system (Promega) according to manufacturer's instructions, and the synthesized cDNA was used for real-time analysis using the SYBR green PCR master mix kit (Applied Biosystems) in the ABI 7500 Fast real-time PCR system (Applied Biosystems, Foster City, CA, USA).
# C. neoformans = experiment: BRI+CAS against yeasts, colony forming units
# Description: Combination of Brilacidin and caspofungin against yeasts: For measuring the effect of the combination BRI+CAS against yeast fungal pathogens, two methods were used: (i) metabolic activity by XTT-assay and (ii) colony forming units (CFUs). For the first method, C. neoformans, C. albicans, and C. auris 10^4 cells were inoculated in RPMI-1640 supplemented with CAS 0 to 32 μg/ml (for C. neoformans) and 0 to 1 μg/ml (for Candida spp.) or the same concentrations of CAS combined with BRI 0.625 μM (for C. neoformans), BRI 20 μM (for C. albicans), and BRI 10 μM (for C. auris). […] XTT-assays were also used for C. albicans caspofungin resistant strains but with CAS 0.5 μg/ml combined with BRI 5, 10 or 20 μM. The same experimental design was used for the CFUs determination, except that after 48 hours the cells present in the wells were plated on YPD (yeast extract 10g, peptone 20g, dextrose 20g, agar 20 g, water 1000 mL) and the plates were incubated at 30° C. for 24-48 hours for determining the survival percentage.
# [5] = system: A. fumigatus clinical isolates; experiment: Growth inhibition of clinical isolates by CAS, VOR, BRI and combinations
compound,measurement,setting,value
"N=C(N)NCCCCC(=O)Nc1cc(C(F)(F)F)cc(NC(=O)c2cc(C(=O)Nc3cc(C(F)(F)F)cc(NC(=O)CCCCNC(=N)N)c3OC3CCNC3)ncn2)c1OC1CCNC1 (stereo not drawn) [BRI, brilacidin]",MIC,"A. fumigatus [1]; A. fumigatus CM7555 CAS^R, read-out: MIC BRI",> 80 µM
same,MIC,"A. fumigatus [1]; A. fumigatus DPL1033 CAS^R, read-out: MIC BRI",> 80 µM
same,MIC,"A. fumigatus [1]; A. fumigatus MD24053 CAS^R, read-out: MIC BRI",> 80 µM
same,MIC,"A. fumigatus [1]; A. fumigatus VOR^R clinical isolate named in c0 of the row, read-out: MIC BRI",80 µM
same,MIC,"A. fumigatus [1]; A. fumigatus WT (CEA17), read-out: MIC BRI",80 µM
same,MIC,"A. fumigatus [1]; A. fumigatus WT, read-out: MIC BRI",> 80 µM
same,MIC,"A. fumigatus [1]; A. fumigatus clinical isolate named in c0 of the row, read-out: MIC BRI",> 80 µM
same,MIC,"A. fumigatus [1]; wild-type A. fumigatus, read-out: BRI MIC",> 80 µM
same,MIC,"C. albicans; Candida albicans SC5314, read-out: MIC BRI",80 µM
same,MIC,"C. albicans; Candida albicans, read-out: MIC BRI, Candida albicans DPL1006 CAS^R (FKS1 F641L)",20 µM
same,MIC,"C. albicans; Candida albicans, read-out: MIC BRI, Candida albicans DPL1009 CAS^R (FKS1 S645Y)",20 µM
same,MIC,"C. albicans; Candida albicans, read-out: MIC BRI, Candida albicans DPL1011 CAS^R (FKS1 S645F + R1361R/H)",40 µM
same,MIC,"C. albicans; Candida albicans, C. albicans CAS-resistant isolates, read-out: BRI MICs",20 to 80 µM
same,MIC,"C. albicans; Candida albicans, C. albicans, read-out: MIC BRI",80 µM
same,MIC,C. auris; Candida auris 467/2015,80 µM
same,MIC,C. auris; Candida auris 468/2015,80 µM
same,MIC,C. auris; Candida auris 469/2015,80 µM
same,MIC,C. auris; Candida auris 470/2015,80 µM
same,MIC,C. auris; Candida auris 471/2015,80 µM
same,MIC,"C. auris; Candidozyma auris, C. auris",80 µM
same,"sensitivity, BRI (20 μM)",[2]; Afs35 (wild-type; A1159),+
same,"sensitivity, BRI (20 μM)",[2]; CEA17 (wild-type; A1160),+
same,"sensitivity, BRI (20 μM)",[2]; ΔcalA (Afu5g09360),−
same,sensitivity of null mutant,[2]; ΔcalA,more sensitive
same,"sensitivity, BRI (20 μM)",[2]; ΔcdcA (Afu3g12250),+
same,"sensitivity, BRI (20 μM)",[2]; ΔdspA (Afu1g13040),+
same,"sensitivity, BRI (20 μM)",[2]; ΔdspB (Afu1g03540),+
same,"sensitivity, BRI (20 μM)",[2]; ΔdspD (Afu2g02760),+
same,"sensitivity, BRI (20 μM)",[2]; ΔltpA (Afu2g01880),+
same,"sensitivity, BRI (20 μM)",[2]; ΔmpkA,−
same,sensitivity of null mutant,[2]; ΔmpkA,more sensitive
same,"sensitivity, BRI (20 μM)",[2]; ΔmpkB,+
same,"sensitivity, BRI (20 μM)",[2]; ΔmpkC,+
same,"sensitivity, BRI (20 μM)",[2]; ΔnemA (Afu1g09460),+
same,"sensitivity, BRI (20 μM)",[2]; ΔpphA (Afu5g12010),+
same,"sensitivity, BRI (20 μM)",[2]; ΔppmA (Afu8g04580),+
same,"sensitivity, BRI (20 μM)",[2]; ΔppsA (Afu5g11690),+
same,"sensitivity, BRI (20 μM)",[2]; ΔpptA (Afu5g06700),+
same,"sensitivity, BRI (20 μM)",[2]; ΔppzA (Afu2g03950),+
same,"sensitivity, BRI (20 μM)",[2]; ΔpsrA (Afu1g04790),+
same,"sensitivity, BRI (20 μM)",[2]; ΔptcA (Afu1g15800),+
same,"sensitivity, BRI (20 μM)",[2]; ΔptcB (Afu1g09280),+
same,"sensitivity, BRI (20 μM)",[2]; ΔptcD (Afu5g13740),+
same,"sensitivity, BRI (20 μM)",[2]; ΔptcE (Afu2g03890),+
same,"sensitivity, BRI (20 μM)",[2]; ΔptcF (Afu1g06860),+
same,"sensitivity, BRI (20 μM)",[2]; ΔptcG (Afu5g13340),+
same,"sensitivity, BRI (20 μM)",[2]; ΔptcH (Afu4g00720),+
same,"sensitivity, BRI (20 μM)",[2]; ΔptpB (Afu3g10970),+
same,"sensitivity, BRI (20 μM)",[2]; ΔptyA (Afu6g06650),+
same,"sensitivity, BRI (20 μM)",[2]; ΔpypA (Afu4g04710),+
same,"sensitivity, BRI (20 μM)",[2]; ΔsakA,+
same,"sensitivity, BRI (20 μM)","[2]; ΔsakA, ΔmpkC",+
same,"sensitivity, BRI (20 μM)",[2]; ΔsitA (Afu6g11470),+
same,"sensitivity, BRI (20 μM)",[2]; ΔyphA (Afu4g07000),+
same,fluorescent germlings (membrane depolarization),[3],5%
same,reduction of fungal burden in the lungs,A. fumigatus [4],approximately 50%
same,inhibition at 20 µM,A. fumigatus biofilms,~10%
same,inhibition at 40 µM,A. fumigatus biofilms,~60%
same,germlings with CrzA:GFP in the nuclei,CrzA:GFP,0%
same,chitin synthase gene expression,chitin synthase genes,induce some of these genes
same,type of activity,"C. neoformans; BRI alone, C. neoformans",fungicidal
same,Mechanism,"C. neoformans; Cryptococcus neoformans H99, plating after 48 hours",Fungicidal
same,activity of BRI alone,[5]; 25 clinical isolates susceptible to CAS and 3 CAS-resistant clinical strains,no activity
same,"growth, BRI alone","[5]; CM7555 CAS^R, BRI 20 μM",+
same,"growth, BRI alone","[5]; CM7555 CAS^R, BRI 40 μM",+
same,"growth, BRI alone","[5]; DPL1033 CAS^R, BRI 20 μM",+
same,"growth, BRI alone","[5]; DPL1033 CAS^R, BRI 40 μM",+
same,"growth, BRI alone","[5]; MD24053 CAS^R, BRI 20 μM",+
same,"growth, BRI alone","[5]; MD24053 CAS^R, BRI 40 μM",+
same,"growth inhibition, BRI alone","[5]; WT (CEA17), BRI 20 μM",+
same,"growth, BRI alone","[5]; WT, BRI 20 μM",+
same,"growth, BRI alone","[5]; WT, BRI 40 μM",+
